In paper PMC12814486 (Bioorganic & medicinal chemistry, 2025):
pIC50: −log10 of the molar value. In brackets after ≈: the same amount, converted by molar mass.

Assays:
human FAAH = biological target: T1, human FAAH (Homo sapiens, UniProt O00519); assay: FAAH inhibition assay; format: biochemical
T1 sequence (O00519 1-579): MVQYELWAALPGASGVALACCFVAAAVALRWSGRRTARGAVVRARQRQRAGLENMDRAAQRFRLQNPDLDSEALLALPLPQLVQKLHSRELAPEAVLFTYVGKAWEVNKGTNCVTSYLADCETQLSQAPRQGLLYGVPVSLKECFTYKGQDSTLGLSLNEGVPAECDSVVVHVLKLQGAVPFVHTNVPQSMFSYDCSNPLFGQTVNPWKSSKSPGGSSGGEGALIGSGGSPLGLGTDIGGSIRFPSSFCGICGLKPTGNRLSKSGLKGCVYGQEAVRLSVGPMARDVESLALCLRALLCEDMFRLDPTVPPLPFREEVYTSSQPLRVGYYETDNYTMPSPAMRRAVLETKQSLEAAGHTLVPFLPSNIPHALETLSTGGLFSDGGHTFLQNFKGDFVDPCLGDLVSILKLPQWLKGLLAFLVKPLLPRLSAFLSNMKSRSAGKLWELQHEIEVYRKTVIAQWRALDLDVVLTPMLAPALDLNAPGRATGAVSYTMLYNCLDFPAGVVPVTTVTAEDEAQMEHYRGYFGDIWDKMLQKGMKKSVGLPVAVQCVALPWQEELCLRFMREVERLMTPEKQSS

mouse sEH = biological target: T2, mouse sEH (Mus musculus, UniProt P34914); assay: sEH inhibition assay; format: biochemical
T2 sequence (P34914 1-554): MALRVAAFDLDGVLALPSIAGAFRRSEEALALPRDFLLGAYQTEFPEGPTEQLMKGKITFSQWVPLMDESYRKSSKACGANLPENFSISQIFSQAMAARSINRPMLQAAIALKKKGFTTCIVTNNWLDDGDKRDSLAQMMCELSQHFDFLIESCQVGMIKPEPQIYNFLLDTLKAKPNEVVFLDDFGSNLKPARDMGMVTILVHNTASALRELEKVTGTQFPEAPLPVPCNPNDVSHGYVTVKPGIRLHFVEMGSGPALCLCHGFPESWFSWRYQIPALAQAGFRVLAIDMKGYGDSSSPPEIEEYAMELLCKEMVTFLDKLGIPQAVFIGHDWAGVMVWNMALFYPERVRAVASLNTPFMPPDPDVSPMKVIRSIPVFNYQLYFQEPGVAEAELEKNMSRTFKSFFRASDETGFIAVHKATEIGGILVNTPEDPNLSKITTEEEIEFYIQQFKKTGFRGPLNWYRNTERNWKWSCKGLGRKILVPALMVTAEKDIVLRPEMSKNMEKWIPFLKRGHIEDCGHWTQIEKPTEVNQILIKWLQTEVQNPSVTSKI

rat sEH = biological target: T3, rat sEH (Rattus norvegicus, UniProt P80299); assay: sEH inhibition assay; format: biochemical
T3 sequence (P80299 1-554): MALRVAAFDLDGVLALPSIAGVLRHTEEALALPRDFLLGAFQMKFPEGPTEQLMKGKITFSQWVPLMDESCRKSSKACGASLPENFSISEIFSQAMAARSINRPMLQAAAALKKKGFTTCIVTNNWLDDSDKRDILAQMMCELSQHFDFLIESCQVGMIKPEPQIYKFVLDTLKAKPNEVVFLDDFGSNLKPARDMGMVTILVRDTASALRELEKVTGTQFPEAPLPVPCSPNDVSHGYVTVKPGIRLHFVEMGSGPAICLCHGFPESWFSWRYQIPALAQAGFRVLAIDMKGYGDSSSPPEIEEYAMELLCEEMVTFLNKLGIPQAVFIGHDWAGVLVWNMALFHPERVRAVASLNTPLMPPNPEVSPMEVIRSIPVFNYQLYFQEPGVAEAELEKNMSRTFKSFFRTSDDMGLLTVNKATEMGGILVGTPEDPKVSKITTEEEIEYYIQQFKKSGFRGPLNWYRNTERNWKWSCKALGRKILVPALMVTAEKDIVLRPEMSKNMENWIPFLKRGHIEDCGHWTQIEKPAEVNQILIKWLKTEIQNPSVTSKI

Solubility assay = format: physicochemical; details: sodium phosphate buffer, pH 7.4, aqueous buffer, kinetic from dmso stock
human sEH = biological target: T4, human sEH (Homo sapiens, UniProt P34913); assay: sEH inhibition assay; format: biochemical
T4 sequence (P34913 1-555): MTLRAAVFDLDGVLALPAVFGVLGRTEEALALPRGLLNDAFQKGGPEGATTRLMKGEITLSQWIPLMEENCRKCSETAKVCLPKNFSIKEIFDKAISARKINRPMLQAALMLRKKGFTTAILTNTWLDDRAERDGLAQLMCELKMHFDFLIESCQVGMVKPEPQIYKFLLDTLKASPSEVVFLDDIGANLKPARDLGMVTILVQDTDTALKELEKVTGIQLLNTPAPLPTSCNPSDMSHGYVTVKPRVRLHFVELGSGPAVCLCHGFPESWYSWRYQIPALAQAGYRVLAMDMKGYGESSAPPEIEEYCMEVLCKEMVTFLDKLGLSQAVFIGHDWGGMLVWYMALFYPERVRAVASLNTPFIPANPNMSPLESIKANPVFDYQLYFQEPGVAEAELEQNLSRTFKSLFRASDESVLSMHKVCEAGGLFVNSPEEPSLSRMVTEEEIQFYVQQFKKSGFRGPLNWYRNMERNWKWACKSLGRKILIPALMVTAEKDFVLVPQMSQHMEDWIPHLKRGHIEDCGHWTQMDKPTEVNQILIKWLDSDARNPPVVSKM

male Sprague-Dawley rats = assay: Home cage wheel running; format: in vivo, rat; details: 3 mg/kg intraperitoneal, vs vehicle, n = 8/group

| SMILES | pIC50 (human FAAH) | pIC50 (mouse sEH) | pIC50 (rat sEH) | solubility (Solubility assay) [µM] | pIC50 (human sEH) | wheel revolutions in the 15 min after drug injection (male Sprague-Dawley rats) |
| --- | --- | --- | --- | --- | --- | --- |
| O=C(Nc1ccc(-c2ncccn2)cc1)C1CCN(S(=O)(=O)c2ccccc2Cl)CC1 [Compound 4a, 1-((2-chlorophenyl)sulfonyl)-N-(4-(pyrimidin-2-yl)phenyl)piperidine-4-carboxamide] | 6.76 | 6.47 | 7.74 | > 63 | 7.71 |  |
| O=C(Nc1ccc(-c2cncnc2)cc1)C1CCN(S(=O)(=O)c2ccccc2Cl)CC1 [Compound 4b, 1-((2-chlorophenyl)sulfonyl)-N-(4-(pyrimidin-5-yl)phenyl)piperidine-4-carboxamide] | 6.71 | 6.04 | 8.31 | > 63 | 8.25 |  |
| O=C(Nc1ccc(-c2ncc(F)cn2)cc1)C1CCN(S(=O)(=O)c2ccccc2Cl)CC1 [Compound 4c, 1-((2-chlorophenyl)sulfonyl)-N-(4-(5-fluoropyrimidin-2-yl)phenyl)piperidine-4-carboxamide] | 6.54 | 7.08 | 7.32 | 31 to 63 (≈ 14.7 to 29.9 µg/mL) | 7.63 |  |
| O=C(Nc1ccc(-c2ncc(Cl)cn2)cc1)C1CCN(S(=O)(=O)c2ccccc2Cl)CC1 [Compound 4d, 1-((2-chlorophenyl)sulfonyl)-N-(4-(5-chloropyrimidin-2-yl)phenyl)piperidine-4-carboxamide] | 6.34 | 7.05 | 7.08 | 31 to 63 (≈ 15.2 to 31 µg/mL) | 7.05 |  |
| Cc1cnc(-c2ccc(NC(=O)C3CCN(S(=O)(=O)c4ccccc4Cl)CC3)cc2)nc1 [Compound 4e, 1-((2-chlorophenyl)sulfonyl)-N-(4-(5-methylpyrimidin-2-yl)phenyl)piperidine-4-carboxamide] | 6.51 | 7.10 | 7.13 | 31 to 63 (≈ 14.6 to 29.7 µg/mL) | 7.13 |  |
| COc1cnc(-c2ccc(NC(=O)C3CCN(S(=O)(=O)c4ccccc4Cl)CC3)cc2)nc1 [Compound 4f, 1-((2-chlorophenyl)sulfonyl)-N-(4-(5-methoxypyrimidin-2-yl)phenyl)piperidine-4-carboxamide] | 6.74 | 7.49 | 7.25 | 31 to 63 (≈ 15.1 to 30.7 µg/mL) | 7.58 |  |
| O=C(Nc1ccc(-c2cnc(F)nc2)cc1)C1CCN(S(=O)(=O)c2ccccc2Cl)CC1 [Compound 4g, 1-((2-chlorophenyl)sulfonyl)-N-(4-(2-fluoropyrimidin-5-yl)phenyl)piperidine-4-carboxamide] | 6.76 | 6.79 | 7.36 | 31 to 63 (≈ 14.7 to 29.9 µg/mL) | 7.57 |  |
| O=C(Nc1ccc(-c2cnc(Cl)nc2)cc1)C1CCN(S(=O)(=O)c2ccccc2Cl)CC1 [Compound 4h, 1-((2-chlorophenyl)sulfonyl)-N-(4-(2-chloropyrimidin-5-yl)phenyl)piperidine-4-carboxamide] | 6.59 | 6.29 | 7.15 | 31 to 63 (≈ 15.2 to 31 µg/mL) | 7.49 |  |
| Cc1ncc(-c2ccc(NC(=O)C3CCN(S(=O)(=O)c4ccccc4Cl)CC3)cc2)cn1 [Compound 4i, 1-((2-chlorophenyl)sulfonyl)-N-(4-(2-methylpyrimidin-5-yl)phenyl)piperidine-4-carboxamide] | 5.91 | 6.67 | 7.92 | 31 to 63 (≈ 14.6 to 29.7 µg/mL) | 8.25 |  |
| COc1ncc(-c2ccc(NC(=O)C3CCN(S(=O)(=O)c4ccccc4Cl)CC3)cc2)cn1 [Compound 4j, 1-((2-chlorophenyl)sulfonyl)-N-(4-(2-methoxypyrimidin-5-yl)phenyl)piperidine-4-carboxamide] | 6.34 | 6.42 | 7.75 | 31 to 63 (≈ 15.1 to 30.7 µg/mL) | 8.11 |  |
| O=C(Nc1ccc(-c2cnc(C(F)(F)F)nc2)cc1)C1CCN(S(=O)(=O)c2ccccc2Cl)CC1 [Compound 4k, 1-((2-chlorophenyl)sulfonyl)-N-(4-(2-(trifluoromethyl)pyrimidin-5-yl)phenyl)piperidine-4-carboxamide] | 6.49 | 5.95 | 6.87 | 31 to 63 (≈ 16.3 to 33.1 µg/mL) | 7.02 |  |
| O=C(Nc1ccc(-c2cnc(Cl)nc2Cl)cc1)C1CCN(S(=O)(=O)c2ccccc2Cl)CC1 [Compound 4l, 1-((2-chlorophenyl)sulfonyl)-N-(4-(2,4-dichloropyrimidin-5-yl)phenyl)piperidine-4-carboxamide] | 5.70 | 7.39 | 7.81 | 31 to 63 (≈ 16.3 to 33.1 µg/mL) | 7.10 |  |
| O=C(Nc1ccc(-c2nnn[nH]2)cc1)C1CCN(S(=O)(=O)c2ccccc2Cl)CC1 [Compound 4n, N-(4-(1H-tetrazol-5-yl)phenyl)-1-((2-chlorophenyl)sulfonyl)piperidine-4-carboxamide] | < 5.00 | 6.70 | 7.08 | 31 to 63 (≈ 13.9 to 28.2 µg/mL) | 6.63 |  |
| O=C(Nc1ccc(-c2nnnn2C2CC2)cc1)C1CCN(S(=O)(=O)c2ccccc2Cl)CC1 [Compound 4o, 1-((2-chlorophenyl)sulfonyl)-N-(4-(1-cyclopropyl-1H-tetrazol-5-yl)phenyl)piperidine-4-carboxamide] | < 5.00 | 7.90 | 7.53 | 31 to 63 (≈ 15.1 to 30.7 µg/mL) | 7.66 |  |
| O=C(Nc1ccc(-c2nnnn2Cc2ccccc2)cc1)C1CCN(S(=O)(=O)c2ccccc2Cl)CC1 [Compound 4p, N-(4-(1-benzyl-1H-tetrazol-5-yl)phenyl)-1-((2-chlorophenyl)sulfonyl)piperidine-4-carboxamide] | < 5.00 | 6.98 | 7.59 | 31 to 63 (≈ 16.6 to 33.8 µg/mL) | 8.01 |  |
| COc1cnc(-n2nnnc2-c2ccc(NC(=O)C3CCN(S(=O)(=O)c4ccccc4Cl)CC3)cc2)c(OC)n1 [Compound 4q, 1-((2-chlorophenyl)sulfonyl)-N-(4-(1-(3,5-dimethoxypyrazin-2-yl)-1H-tetrazol-5-yl)phenyl)piperidine-4-carboxamide] | < 5.00 | 6.58 | 6.52 | 31 to 63 (≈ 18.1 to 36.9 µg/mL) | 6.67 |  |
| NC(=O)c1cccc(-c2cccc(OC(=O)NC3CCCCC3)c2)c1 [URB597, reference compound] |  |  |  | > 63 |  |  |
| CN1CC[C@]23c4c5ccc(O)c4O[C@H]2[C@@H](O)C=C[C@H]3[C@H]1C5 [morphine, reference compound] |  |  |  |  |  | significantly lower |
